In article PMC3917258, “6-Bromoisatin Found in Muricid Mollusc Extracts Inhibits Colon Cancer Cell Proliferation and Induces Apoptosis, Preventing Early Stage Tumor Formation in a Colorectal Cancer Rodent Model” (Marine Drugs, 2013):

Columns and labels:
[1] = test system: lymphoma (U937) cell line; parameters: method as in PMID 17088067; details: cited from earlier work
[2] = test system: human promyelocytic leukemia (HL60) cancer cells; parameters: method as in PMID 11006132; details: 100 µM; cited from earlier work
[3] = test system: human neuroblastoma SH-SY5Y cells; parameters: method as in PMID 15876476; details: 50 µM; cited from earlier work
ERK-2 = test system: ERK-2; parameters: method as in PMID 11006132; details: 100 µM, compared to the control; cited from earlier work
[4] = test system: caspase 3/7 activity in HT29 cells; test: Caspase-Glo 3/7 assay; assay type: cell-based, human; details: positive control, 5 µM, 12 h
Procedure: All media and chemicals were purchased from Sigma Aldrich (Castle Hill, NSW, Australia) unless otherwise stated. HT29 human colorectal cancer cell line (passage no. 36-42) were cultured (37 °C and 5% CO2) in Dulbecco’s Modified Eagle’s Medium (DMEM) supplemented with 4500 mg/L L-glutamine, 10% FBS, 100 U/mL Penicillin/Streptomycin and 1% Non-essential Amino Acid (100×), until the cells reached 70% confluence. The cells were harvested from flasks by trypsinization (1× Trypsin-EDTA) and were seeded (20,000 cells/well) into clear 96-well plates (Costar®, Mt Martha, VIC, Australia) for measurement of cell viability and white (opaque) 96-well plates (Interpath, Heidelberg West, VIC, Australia) for determination of apoptosis and necrosis. HT29 cells were incubated for 48 h, then the media was removed and the cells were washed with PBS. To treat the cells, synthetic 6-bromoisatin was dissolved in 100% dimethylsulphoxide (DMSO) then diluted in media and added to the cells at a range of concentrations from 0.1 to 0.01 mg/mL, in triplicate (final DMSO concentration of 1%). 1% DMSO controls were also included on each plate. Staurosporine (5 µM) for apoptosis and lysis solution (5 μL/well, Promega, Alexandria, NSW, Australia) for necrosis were added to the white plates in triplicate, as positive controls. All cells were treated for 12 h. Morphological changes in the cells were observed on an Olympus CK2 inverted optical microscope (×400 magnification) 12 h after treatment. To measure cell viability, the MTT assay was applied, which measures the reduction of MTT tetrazolium salt to formazan, as previously described. To measure necrosis and apoptosis, CytoTox-ONE Homogeneous Membrane Integrity Assay reagent (Promega) and Caspase-Glo 3/7® assay (Promega) were applied respectively, according to our previous study. These assays were all repeated in triplicate on three separate occasions (n = 3).

## O=C1Nc2ccc(Br)cc2C1=O [5-bromo-]
[1]
  activity for killing cancer cells relative to unsubstituted isatin: 5–10 times

## O=C1Nc2ccc(F)cc2C1=O [5-fluoroisatin]
[1]
  activity for killing cancer cells relative to unsubstituted isatin: 5–10 times

## O=C1Nc2ccc(I)cc2C1=O [5-iodo-]
[1]
  activity for killing cancer cells relative to unsubstituted isatin: 5–10 times

## O=C1Nc2ccccc2C1=O [isatin, 1H-indole-2,3-dione]
[2]
  reduction of cell proliferation: 80%
[3]
  apoptosis: apoptosis was observed
ERK-2
  inhibition of phosphorylation of ERK-2: 35%

## CN[C@@H]1C[C@H]2O[C@@](C)([C@@H]1OC)n1c3ccccc3c3c4c(c5c6ccccc6n2c5c31)C(=O)NC4 [staurosporine, reference compound]
[4]
  caspase 3/7 activity: significant increase
